Data from paper PMC6094432, “Design, Synthesis and Evaluation of Substituted Aryl-2-Nitrovinyl Derivatives as Small Molecules Proteasome Inhibitors” (Iranian Journal of Pharmaceutical Research : IJPR, 2018).
Read-outs that look alike come from different tables or passages of the source.

Assays:
MCF-7 cells = test: Cell viability (MTT) assay, MCF-7; assay type: cell-based; conditions: Homo sapiens, read-out: Cell cytotoxicity assay IC50 MCF-7
Experimental: (§1) Human breast cancer (MCF-7), and human prostate cancer (PC-3) cells were cultured in their respective media supplemented with 10% fetal bovine serum (FBS). The cells were cultured at 1 × 10^4 cells per well, in a 96-well plate and incubated for 24-48 h to obtain cell attachments. Afterwards, the cells were treated with different concentrations of test compounds for 48 h and then incubated with 20 µL of 5 mg/mL 3-(4,5-dimethylthiazol-2-yl)-2,5-diphenyl tetrazolium bromide (MTT) solution for 4 h. After aspiration of the MTT solution, 100 µL of DMSO was added to each well to dissolve formazan crystals. The absorbance of each well was measured at the wavelength of 550 nm using an enzyme-linked immunosorbent assay reader. IC50 values were calculated from the curves generated by plotting the percentage of the viable cells versus the test concentration on a logarithmic scale using SigmaPlot 10.0 software.

PC-3 cells = test: Cell viability (MTT) assay, PC-3; assay type: cell-based; conditions: Homo sapiens, read-out: Cell cytotoxicity assay IC50 PC-3
Experimental: as §1

[1] = target: T1, 20S proteasome ChT-L activity (Homo sapiens, UniProt P28074); test: Cell-based 20S proteasome ChT-L inhibition assay in MCF-7 cells
T1 construct: This assay measures the ChT-L protease activity in cultured cells; endogenous in cells; host or cells: MCF-7 and PC-3 cells
Experimental: (§2) Cell-based proteasome inhibition assay
(§3) The effect of the derivatives on the 20S proteasome activity was determined using the 20S proteasome activity assay kit from Sigma (USA). This assay measures the ChT-L protease activity in cultured cells and is based on the detection of the fluorophore R110 after cleavage from the labeled substrate LLVY-R110. MCF-7 and PC-3 cells were pretreated with different concentrations of corresponding compounds and proteasome activities were determined according to the manufacturer′s protocol. Proteasome activity generates strongly green fluorescent R110, which was monitored at an excitation wavelength of 480 nm and emission of […] on a microplate fluorescence reader. All data were calculated by subtracting the blank control.

[2] = target: T1, 20S proteasome ChT-L activity; test: Cell-based 20S proteasome ChT-L inhibition assay in PC-3 cells
Experimental: as §2, §3

[3] = MCF7, MCF-7 cells, percent inhibition at 10 µM, ChT-L activity, LLVY-R110 substrate, read-out: 20S proteasome inhibition, Inhibition [%] MCF-7
[4] = MCF-7 cells, ChT-L activity, LLVY-R110 substrate
[5] = PC-3 cells, percent inhibition at 25 µM, ChT-L activity, LLVY-R110 substrate, read-out: 20S proteasome inhibition, Inhibition [%] PC-3
[6] = PC-3 cells, ChT-L activity, LLVY-R110 substrate
[7] = MCF7, MCF-7, MTT, 48 h treatment, mean ± SD of three independent experiments
[8] = PC-3, MTT, 48 h treatment, mean ± SD of three independent experiments

SMILES | IC50 (MCF-7 cells; MCF7, 48 h) [µM] | IC50 (PC-3 cells; PC-3, 48 h) [µM] | inhibition at 10 µM [1, 3] [%] | IC50 [1, 4] [µM] | inhibition at 25 µM [2, 5] [%] | IC50 [2, 6] [µM] | melting point [°C] | inhibition at 10 µM ([1]; MCF7, read-out: 20S proteasome inhibition, Inhibition [%] MCF-7) [%] | inhibition at 25 µM ([2]; PC-3, read-out: 20S proteasome inhibition, Inhibition [%] PC-3) [%] | IC50 (MCF-7 cells; [7]) [µM] | IC50 (PC-3 cells; [8]) [µM]
O=[N+]([O-])C(=Cc1ccc(Cl)cc1)CO [Compound 2b, 2-Nitro-3-(4-chlorophenyl)prop-2-en-1-ol] | 17.34 ± 0.13 | 20.79 ± 0.01 | 44.1 ± 2.8 | 10.3 ± 0.17 | 40.3 ± 1.9 | 22.02 ± 0.09 |  |  |  |  | 
Cc1ccc(C=C(Cc2ccccc2)[N+](=O)[O-])cc1 [Compound 4c, 3-(4-methylphenyl)-2-nitroallylbenzene] | 16.56 ± 0.12 | 62.7 ± 4.21 | 48.2 ± 2.8 | 9.92 ± 0.27 | 50.8 ± 2.7 | 30.1 ± 3.74 | 105 to 107 |  |  |  | 
CC(C)C[C@H](NC(=O)[C@H](Cc1ccccc1)NC(=O)c1cnccn1)B(O)O [Bortezomib, bortezomib, reference compound] | 0.04 ± 0.01 | 0.26 ± 0.02 |  |  |  |  |  | 86.7 ± 5.1 | 74 ± 4.6 |  | 
O=[N+]([O-])C=Cc1ccccc1 [Compound 1a, (2-nitrovinyl)benzene] |  |  | 85.2 ± 5.9 | 3.67 ± 0.27 | 78.6 ± 3.2 | 38 ± 3.24 |  |  |  | 5.23 ± 0.17 | 39.9 ± 0.97
Cc1ccc(C=C[N+](=O)[O-])cc1 [Compound 1c, 1-methyl-4-(2-nitrovinyl)benzene] |  |  | 88.9 ± 4.6 | 5.23 ± 0.15 | 80.1 ± 5.4 | 36 ± 2.14 |  |  |  | 9.63 ± 0.25 | 70.4 ± 4.33
COc1ccc(C=C(CO)[N+](=O)[O-])cc1 [Compound 2d, 2-Nitro-3-(4-methoxyphenyl)prop-2-en-1-ol] | 1.17 ± 0.04 | 32.3 ± 2.04 | 85 ± 6.1 | 0.71 ± 0.01 | 86.3 ± 5 | 17.8 ± 1.05 |  |  |  |  | 
O=[N+]([O-])C(=Cc1ccccc1)Cc1ccccc1 [Compound 4a, 3-(phenyl)-2-nitroallylbenzene] | 10.7 ± 0.16 | 48.8 ± 2.71 | 54.9 ± 4.3 | 7.56 ± 0.11 | 42.7 ± 3.6 | 39.6 ± 16.3 |  |  |  |  | 
Cc1ccc(C=C(CO)[N+](=O)[O-])cc1 [Compound 2c, 2-Nitro-3-(4-tolyl)prop-2-en-1-ol] | 5.08 ± 0.05 | 46.6 ± 6.72 | 93.4 ± 5.2 | 2.82 ± 0.06 | 87 ± 4.1 | 25.9 ± 2.37 | 52 to 54 |  |  |  | 
O=[N+]([O-])C(=Cc1ccccc1)CO [Compound 2a, 2-Nitro-3-phenylprop-2-en-1-ol] | 2.4 ± 0.08 | 29.27 ± 0.12 | 90.3 ± 5 | 1.7 ± 0.02 | 72.4 ± 2.2 | 21.7 ± 1.17 |  |  |  |  | 
O=[N+]([O-])C=Cc1ccc(Cl)cc1 [Compound 1b, 1-chloro-4-(2-nitrovinyl)benzene] |  |  | 93.9 ± 2.4 | 5.63 ± 0.39 | 84.3 ± 2.7 | 48 ± 5.39 |  |  |  | 7.11 ± 0.22 | 78.4 ± 3.22
O=[N+]([O-])C(=Cc1ccc(Cl)cc1)Cc1ccccc1 [Compound 4b, 3-(4-chlorophenyl)-2-nitroallylbenzene] | 15.9 ± 0.2 | 70.74 ± 0.08 | 50.4 ± 3.9 | 11.1 ± 0.17 | 63.9 ± 4.4 | 40.22 ± 0.07 | 98 to 100 |  |  |  | 
CN(C)c1ccc(C=C[N+](=O)[O-])cc1 [Compound 1e, N, N-dimethyl-4-(2-nitrovinyl)benzenamine] |  |  |  | > 50 |  | > 50 |  |  |  | 43.9 ± 1.27 | 188 ± 10.3
COc1ccc(C=C(Cc2ccccc2)[N+](=O)[O-])cc1 [Compound 4d, 3-(4-methoxyphenyl)-2-nitroallylbenzene] | 4.72 ± 0.07 | 79.6 ± 4.6 | 60.4 ± 4.1 | 3.57 ± 0.13 | 54.4 ± 3.3 | 42.8 ± 5.11 | 53 to 56 |  |  |  | 
CN(C)c1ccc(C=C(Cc2ccccc2)[N+](=O)[O-])cc1 [Compound 4e, N, N-dimethyl-4-(2-nitro-3-phenylprop-1-enyl)benzenamine] | 20.85 ± 0.09 | 332 ± 12.3 |  | > 50 |  | > 50 | 110 to 113 |  |  |  | 
Cc1ccc(C=C(CC(C)C)[N+](=O)[O-])cc1 [Compound 6a, 1-methyl-4-(4-methyl-2-nitropent-1-enyl)benzene] | 24.08 ± 0.18 | 73.1 ± 3.63 | 43.9 ± 0.98 | 13.7 ± 4.64 | 40.3 ± 1.2 | 36.1 ± 4.1 |  |  |  |  | 
COc1ccc(C=C(CC(C)C)[N+](=O)[O-])cc1 [Compound 6b, 1-methoxy-4-(4-methyl-2-nitropent-1-enyl)benzene] | 5.27 ± 0.03 | 60.07 ± 0.01 | 45.7 ± 3.6 | 3.82 ± 0.15 | 50.2 ± 3.5 | 20.5 ± 1.09 |  |  |  |  | 
COc1ccc(C=C[N+](=O)[O-])cc1 [Compound 1d, 1-methoxy-4-(2-nitrovinyl) benzene] |  |  | 89.6 ± 4.4 | 1.21 ± 0.07 | 84.5 ± 3.9 | 29.4 ± 2.91 |  |  |  | 2.2 ± 0.06 | 60.3 ± 5.11
